The source made the active and inactive calls. The calls are words filed in the database; no cut-off is given here. Non-standard residues stand in square brackets, D forms with d. Residues, ends and D or L forms follow the SMILES beside them. Nle = CCCC[C@H](N)C(=O)O
Key:
PC-3 [1] = experiment: Antiproliferative activity against human PC3 cells at 20 uM after 120 hrs by MTT assay relative to DMSO; assay type: functional
PC-3 [2] = experiment: Antiproliferative activity against human PC3 cells at 200 nM after 120 hrs by MTT assay relative to DMSO; assay type: functional
PC-3 [3] = experiment: Antiproliferative activity against human PC3 cells at 300 nM after 120 hrs by MTT assay relative to DMSO; assay type: functional
PC-3 [4] = experiment: Antiproliferative activity against human PC3 cells at 250 nM after 120 hrs by MTT assay relative to DMSO; assay type: functional
PC-3 [5] = experiment: Antiproliferative activity against human PC3 cells at 50 ug/ml after 120 hrs by MTT assay relative to DMSO; assay type: functional
HEK293 [6] = experiment: Inhibition of proteasome expressed in HEK293 cells assessed as effect on Pin1-Jun interaction complexes by EYFP and/or YFP Venus fragment based reporter gene assay
HEK293 [7] = experiment: Inhibition of proteasome expressed in HEK293 cells assessed as effect on p53-p53 interaction complexes by EYFP and/or YFP Venus fragment based reporter gene assay
Cofilin-1 (Homo sapiens) [8] = biological target: Cofilin-1 (Homo sapiens) (UniProt P23528); experiment: Effect on cofilin1 expressed in HEK293 cells assessed as effect on cofilin1; Limk2 interaction complexes by EYFP and/or YFP Venus fragment based reporter gene assay; assay type: cell-based
HEK293 [9] = experiment: Inhibition of proteasome expressed in HEK293 cells assessed as effect on E6:E6AP interaction complexes by EYFP and/or YFP Venus fragment based reporter gene assay
HEK293 [10] = experiment: Inhibition of proteasome expressed in HEK293 cells assessed as effect on p53-Chk1 interaction complexes by EYFP and/or YFP Venus fragment based reporter gene assay
HEK293 [11] = experiment: Inhibition of proteasome expressed in HEK293 cells assessed as effect on CyclinD1-CDK4 interaction complexes by EYFP and/or YFP Venus fragment based reporter gene assay
PC-3 [12] = experiment: Antiproliferative activity against human PC3 cells at 25 uM after 120 hrs by MTT assay relative to DMSO; assay type: functional
PC-3 [13] = experiment: Antiproliferative activity against human PC3 cells at 5 uM after 120 hrs by MTT assay relative to DMSO; assay type: functional
HEK293 [14] = experiment: Inhibition of HSP90 expressed in HEK293 cells assessed as effect on Akt1:p27 interaction complexes by EYFP and/or YFP Venus fragment based reporter gene assay; assay type: cell-based
PC-3 [15] = experiment: Antiproliferative activity against human PC3 cells at 15 uM after 120 hrs by MTT assay relative to DMSO; assay type: functional
[16] = biological target: Cyclin-dependent kinase 1 (Homo sapiens) (UniProt P06493); experiment: Inhibition of Cdc2 expressed in HEK293 cells assessed as effect on Cdc2:Cdc25C interaction complexes in presence of camptothecin by EYFP and/or YFP Venus fragment based reporter gene assay; assay type: cell-based
[17] = biological target: Cyclin-dependent kinase 1 (Homo sapiens) (UniProt P06493); experiment: Effect on Cdc2 expressed in HEK293 cells assessed as effect on Cdc2:Cdc25A interaction complexes in presence of camptothecin by EYFP and/or YFP Venus fragment based reporter gene assay; assay type: cell-based
Cofilin-1 (Homo sapiens) [18] = biological target: Cofilin-1 (Homo sapiens) (UniProt P23528); experiment: Effect on cofilin1 expressed in HEK293 cells assessed as effect on cofilin1; Limk2 interaction complexes in presence of camptothecin by EYFP and/or YFP Venus fragment based reporter gene assay; assay type: cell-based
[19] = biological target: Transcription factor Jun (Homo sapiens) (UniProt P05412); experiment: Activation of c-Jun expressed in HEK293 cells assessed as induction of protein interaction with Pin1 by EYFP based reporter gene assay; assay type: cell-based
[20] = biological target: Cyclin-dependent kinase 1 (Homo sapiens) (UniProt P06493); experiment: Effect on Cdc2 expressed in HEK293 cells assessed as effect on Cdc2:Cdc25C interaction complexes in presence of camptothecin by EYFP and/or YFP Venus fragment based reporter gene assay; assay type: cell-based
[21] = biological target: Transcription factor Jun (Homo sapiens) (UniProt P05412); experiment: Inhibition of c-Jun expressed in HEK293 cells assessed as induction of protein interaction in presence of camptothecin with Pin1 by EYFP based reporter gene assay; assay type: cell-based
PC-3 [22] = experiment: Antiproliferative activity against human PC3 cells at 30 uM after 120 hrs by MTT assay relative to DMSO; assay type: functional
PC-3 [23] = experiment: Antiproliferative activity against human PC3 cells at 12.5 uM after 120 hrs by MTT assay relative to DMSO; assay type: functional
Cofilin-1 (Homo sapiens) [24] = biological target: Cofilin-1 (Homo sapiens) (UniProt P23528); experiment: Inhibition of cofilin1 expressed in HEK293 cells assessed as effect on cofilin1; Limk2 interaction complexes by EYFP and/or YFP Venus fragment based reporter gene assay; assay type: cell-based
PC-3 [25] = experiment: Antiproliferative activity against human PC3 cells at 10 uM after 120 hrs by MTT assay relative to DMSO; assay type: functional

Sequence of Transcription factor Jun (Homo sapiens) (P05412 whole entry, the tested form may be a part): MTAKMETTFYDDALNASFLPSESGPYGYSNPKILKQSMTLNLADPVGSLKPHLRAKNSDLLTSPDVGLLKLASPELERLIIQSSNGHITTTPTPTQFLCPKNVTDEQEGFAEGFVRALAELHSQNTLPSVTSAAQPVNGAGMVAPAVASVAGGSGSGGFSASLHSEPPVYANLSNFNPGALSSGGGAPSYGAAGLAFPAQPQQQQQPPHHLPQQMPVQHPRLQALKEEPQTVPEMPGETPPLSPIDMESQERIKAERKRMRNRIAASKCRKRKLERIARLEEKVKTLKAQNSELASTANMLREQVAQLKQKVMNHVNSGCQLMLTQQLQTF
Sequence of Cofilin-1 (Homo sapiens) (P23528 whole entry, the tested form may be a part): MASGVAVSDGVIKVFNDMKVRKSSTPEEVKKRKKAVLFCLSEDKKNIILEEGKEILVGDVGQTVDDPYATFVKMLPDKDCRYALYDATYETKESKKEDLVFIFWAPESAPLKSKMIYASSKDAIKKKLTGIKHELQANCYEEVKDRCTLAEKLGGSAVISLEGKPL
Sequence of Cyclin-dependent kinase 1 (Homo sapiens) (P06493 whole entry, looked up, the tested form may be a part): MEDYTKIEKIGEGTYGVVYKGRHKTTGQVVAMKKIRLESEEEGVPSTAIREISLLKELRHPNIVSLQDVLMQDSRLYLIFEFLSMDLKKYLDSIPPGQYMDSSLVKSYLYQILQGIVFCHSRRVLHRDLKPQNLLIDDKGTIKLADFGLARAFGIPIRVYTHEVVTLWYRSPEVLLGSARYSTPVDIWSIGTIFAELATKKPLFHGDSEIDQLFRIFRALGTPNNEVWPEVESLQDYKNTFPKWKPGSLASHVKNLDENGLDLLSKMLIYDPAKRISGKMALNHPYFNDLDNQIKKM

## COc1cccc(-c2cc(=O)c3ccccc3o2)c1N
PC-3 [1]
  fold change (FC): 0.901

## Cc1[nH]c(=O)c(C#N)cc1-c1ccncc1 [MILRINONE]
PC-3 [2]
  fold change (FC): 1.015

## CC[C@H](C)[C@H](NC(=O)[C@H](Cc1ccc(O)cc1)NC(=O)[C@@H](NC(=O)[C@H](CCCNC(=N)N)NC(=O)[C@@H](N)CC(=O)O)C(C)C)C(=O)N[C@@H](Cc1cnc[nH]1)C(=O)N1CCC[C@H]1C(=O)N[C@@H](Cc1ccccc1)C(=O)O [ANGIOTENSIN II]
PC-3 [3]
  fold change (FC): 1.018

## O=C1CCC(N2C(=O)c3ccccc3C2=O)C(=O)N1 (configuration not stated) [THALIDOMIDE]
PC-3 [4]
  fold change (FC): 0.992

## C[C@H]1CCC/C=C/[C@@H]2C[C@H](O)C[C@H]2[C@H](O)/C=C/C(=O)O1 [BREFELDIN A]
PC-3 [5]
  fold change (FC): 0.245

## CCCC[C@@H](C=O)NC(=O)[C@H](CC(C)C)NC(=O)[C@H](CC(C)C)NC(C)=O (Ac-Leu-Leu-[Nle]-aldehyde)
HEK293 [6]
  inhibition: Active
HEK293 [7]
  inhibition: Active
Cofilin-1 (Homo sapiens) [8]
  Activity: Active
HEK293 [9]
  inhibition: Active
HEK293 [10]
  inhibition: Active
HEK293 [11]
  inhibition: Active
PC-3 [12]
  fold change (FC): 0.26

## COc1cc2ncnc(Nc3cccc(Br)c3)c2cc1OC
PC-3 [2]
  fold change (FC): 0.983

## C=CCNC1=C2C[C@@H](C)C[C@H](OC)[C@H](O)[C@@H](C)/C=C(\C)[C@H](OC(N)=O)[C@@H](OC)/C=C\C=C(/C)C(=O)NC(=CC1=O)C2=O (stereo in doubt) [TANESPIMYCIN]
PC-3 [13]
  fold change (FC): 0.264
HEK293 [14]
  inhibition: Active

## COc1ccc(-n2nc(C(F)(F)F)cc2-c2ccc(Cl)cc2)cc1 [SC-560]
PC-3 [4]
  fold change (FC): 1.036

## CC1(COc2ccc(CC3SC(=O)NC3=O)cc2)CCCCC1 (configuration not stated) [CIGLITAZONE]
PC-3 [15]
  fold change (FC): 0.934

## CCOC(=O)C(C)(C)Oc1ccc(Cl)cc1 [CLOFIBRATE]
[16]
  inhibition: Active
[17]
  Activity: Active
Cofilin-1 (Homo sapiens) [18]
  Activity: Active
[19]
  Activity: Active
[20]
  Activity: Active
[21]
  Activity: Active
PC-3 [22]
  fold change (FC): 1.021

## O=c1c(-c2ccc(O)cc2)coc2cc(O)cc(O)c12 [GENISTEIN]
PC-3 [23]
  fold change (FC): 1.074

## CN[C@H]1CC[C@@H](c2ccc(Cl)c(Cl)c2)c2ccccc21 [SERTRALINE]
Cofilin-1 (Homo sapiens) [24]
  inhibition: Active
[17]
  Activity: Active
Cofilin-1 (Homo sapiens) [18]
  Activity: Active
[20]
  Activity: Active
[21]
  Activity: Active
PC-3 [25]
  fold change (FC): 0.226

## CC(C)OC(=O)C(C)(C)Oc1ccc(C(=O)c2ccc(Cl)cc2)cc1
[16]
  inhibition: Active
[17]
  Activity: Active
Cofilin-1 (Homo sapiens) [18]
  Activity: Active
[19]
  Activity: Active
[20]
  Activity: Active
[21]
  Activity: Active

Reference: ChEMBL document CHEMBL1221184, “Identifying off-target effects and hidden phenotypes of drugs in human cells” (Nat Chem Biol, 2006)
